Experimental data published in patent EP0303028A1, “Method for preparing single chain urokinase” (GRUPPO LEPETIT S.p.A., priority 1987, dated 1989).
Square brackets hold non-standard residues; d marks the D form. Peptide text beside a SMILES is read from it. * marks the point of attachment. pNA = O=[N+]([O-])c1ccc(N*)cc1; pGlu = O=C1CC[C@@H](C(=O)O)N1

Key:
Assay in all cases: Kinetics of amidolytic activity on S-2444 (Lineweaver-Burk)
Format in all cases: biochemical
Settings in all cases: pH 8.8 and 37°C
[1] = target: plasmin-activated RSV-LB6-scu-PA (3F11-scu-PA; recombinant human uPA from RSV-uPA transfected murine LB6 cells) (Homo sapiens, UniProt P00749)
Method: (§1) The fibrinolytic assay is carried out by the fibrin plate method (Astrup T., Mullertz S., The fibrin plate method for estimating fibrinolytic activity, Arch Biochem Biophys 1952, 40:346-351). Urokinase reference standard is used to calibrate each assay. Activity is measured in International Units (I.U.) relative to the International Reference Preparation as the primary standard. sc-uPA (cell produced single chain urokinase) fibrinolytic latent activity is determined after activation as follows: plasmin (10 mg) is coupled with CNBr-activated Sepharose (cross-linked agarose) (2.5 ml) using 0.5 M sodium carbonate buffer as the coupling buffer. A 1:10 suspension of plasmin-agarose (0.9 ml) in 0.15 M sodium chloride, 0.05 M sodium phosphate buffer pH 7.4 is mixed with sc-uPA samples (0.1 ml) and gently rotated for 1 h at 20°C. Plasmin-agarose is removed by centrifugation 2 min at 10000 x g and the supernatant tested by the fibrin plate assay. Protein concentrations were measured according to the method of Lowry (Lowry O., Rosebrough H., Parr A., Randall R., Protein measurement with the Folin phenol reagent, J. Biol. Chem. 1951, 193,265-275). Amidolytic assays are performed by measuring the rate of hydrolysis of the synthetic substrate pyro-Glu-Gly-Arg-pNA, S-2444 (Claeson G., Friberger P., Knos M., Eriksson E., Methods for determination of pre-kallikrein in plasma, glandular kallikrein and urokinase, Haemostasis 1978; 7:76-78). Immunoadsorbent-amidolytic assay (IAA) is carried out as described by Corti A., Nolli ML., Cassani G., Differential detection of single-chain and two-chain urokinase type plasminogen activator by a new immunoadsorbent amidolytic assay (IAA), Throm Haemostas 1986, 56:407-10. The assay combines the selectivity of immunoassays with the specificity of enzyme activity assays exploiting both the antigenic and enzymatic properties of the two proteins. tcu-PA and scu-PA are selectively immunoadsorbed on the wells of a microtiter plate coated with the monoclonal antibody 5B4 and tested for enzymatic activity before and after activation by plasmin treatment.
(§2) To determine the kinetic parameters of the amidolytic activity, plasmin-activated u-PA's (4.5 nM) are incubated at different concentrations (0.03 - 0.3 mM) of pyro-Glu-Gly-Arg-p-nitroanilide (S-2444) in 0.1 M Tris Cl (pH 8.8), 50 mM NaCl and 0.1% bovine serum albumin at 37°C. The initial rate of p-nitroaniline release is determined photometrically at 405 nm. The linear increase of absorbance with time for the various concentrations of S-2444 is reported in a Lineweaver-Burk plot from which Km and Vmax are calculated by extrapolation of the curves obtained using a linear regression program.

[2] = target: plasmin-activated A431 scu-PA (from untransformed human A431 cells) (Homo sapiens, UniProt P00749)
Method: as §1, §2

[3] = target: plasmin-activated BPV-LB6-scu-PA (recombinant human uPA from BPV vector transfected murine LB6 cells) (Homo sapiens, UniProt P00749)
Method: as §1, §2

[4] = target: plasmin-activated RSV-A431-scu-PA (recombinant human uPA from RSV-uPA transfected A431 cells) (Homo sapiens, UniProt P00749)
Method: as §1, §2

[5] = target: plasmin-activated urinary scu-PA (human urine tcu-PA, urokinase) (Homo sapiens, UniProt P00749)
Method: as §1, §2

[6] = target: plasmin-activated RSV-CHO-scu-PA (recombinant human uPA from RSV-uPA transfected CHO cells) (Homo sapiens, UniProt P00749)
Method: as §1, §2

Question: What does the source list for `N=C(N)NCCC[C@H](NC(=O)CNC(=O)[C@@H]1CCC(=O)N1)C(=O)Nc1ccc([N+](=O)[O-])cc1` [S-2444, pyro-Glu-Gly-Arg-p-nitroanilide] ([pGlu]-Gly-Arg-pNA)?
Answer: Km [1]: 69 µM; kcat [1]: 24 s⁻¹; Km [2]: 72 µM; kcat [2]: 23 s⁻¹; Km [3]: 78 µM; kcat [3]: 26 s⁻¹; Km [4]: 76 µM; kcat [4]: 23 s⁻¹; Km [5]: 80 µM; kcat [5]: 25 s⁻¹; Km [6]: 76 µM; kcat [6]: 26 s⁻¹
